# Patent US8906825B2, “Herbicidal compositions comprising 4-amino-3-chloro-5-fluoro-6-(4-chloro-2-fluoro-3-methoxyphenyl) pyridine-2-carboxylic acid or a derivative thereof and triazolopyrimidine sulfonamides” (Dow AgroSciences LLC, priority 2012, dated 2014)
# Tests used:
# Assay type in all cases: in vivo
# [1] = system: BRAPP (Brachiaria platyphylla (Griseb.) Nash, broadleaf signalgrass); assay: Postemergence foliar-applied herbicidal mixtures, direct seeded rice, greenhouse (Example I)
# From the text: (§1) Seeds or nutlets of the desired test plant species were planted in a soil matrix prepared by mixing a loam or sandy loam soil (e.g., 28.6 percent silt, 18.8 percent clay, and 52.6 percent sand, with a pH of about 5.8 and an organic matter content of about 1.8 percent) and calcareous grit in an 80 to 20 ratio. The soil matrix was contained in plastic pots with a volume of 1 quart and a surface area of 83.6 square centimeters (cm^2). When required to ensure good germination and healthy plants, a fungicide treatment and/or other chemical or physical treatment was applied. The plants were grown for 8-22 days in a greenhouse with an approximate 14 h photoperiod which was maintained at about 29° C. during the day and about 26° C. during the night. Nutrients (Peters Excel® 15-5-15 5-Ca 2-Mg and iron chelate) were applied in the irrigation solution as needed and water was added on a regular basis. Supplemental lighting was provided with overhead metal halide 1000-Watt lamps as necessary. The plants were employed for testing when they reached the first through fourth true leaf stage.
# (§2) Treatments consisted of the acid or esters of 4-amino-3-chloro-5-fluoro-6-(4-chloro-2-fluoro-3-methoxy-phenyl)pyridine-2-carboxylic acid (Compound A), each formulated as an SC (suspension concentrate), and various herbicidal components alone and in combination. Forms of compound A were applied on an acid equivalent basis.
# (§3) Other herbicidal components were applied on an active ingredient basis and included acetolactate synthase (ALS)-inhibiting herbicides (sulfonamide chemical class) penoxsulam formulated as Grasp® SC, diclosulam formulated as Strongarm®, and cloransulam-methyl formulated as FirstRate®, flumetsulam formulated as Flumetsulam WG, and metosulam formulated as Eclipse®.
# (§4) Treatment requirements were calculated based upon the rates being tested, the concentration of active ingredient or acid equivalent in the formulation, and a 12 mL application volume at a rate of 187 L/ha.
# (§5) For treatments comprised of formulated compounds, measured amounts of compounds were placed individually in 25 mL glass vials and diluted in a volume of 1.25% (v/v) Agri-Dex® crop oil concentrated to obtain 12× stock solutions. […] Application solutions were prepared by adding an appropriate amount of each stock solution (e.g., 1 mL) and diluted to the appropriate final concentrations with the addition of 10 mL of an aqueous mixture of 1.25% (v/v) crop oil concentrate so that the final spray solutions contained 1.25+/−0.05% (v/v) crop oil concentrate.
# (§6) All stock solutions and applications solutions were visually inspected for compound compatibility prior to application. Spray solutions were applied to the plant material with an overhead Mandel track sprayer equipped with an 8002E nozzle calibrated to deliver 187 L/ha over an application area of 0.503 m^2 at a spray height of 18 to 20 inches (46 to 50 cm) above average plant canopy height. Control plants were sprayed in the same manner with the solvent blank.
# (§7) The treated plants and control plants were placed in a greenhouse as described above and watered by sub-irrigation to prevent wash-off of the test compounds. After approximately 3 weeks, the condition of the test plants as compared with that of the untreated plants was determined visually and scored on a scale of 0 to 100 percent where 0 corresponds to no injury or growth inhibition and 100 corresponds to complete kill.
# (§8) Colby's equation was used to determine the herbicidal effects expected from the mixtures (Colby, S. R. 1967. Calculation of the synergistic and antagonistic response of herbicide combinations. Weeds 15:20-22.).
# (§9) The following equation was used to calculate the expected activity of mixtures containing two active ingredients, A and B: Expected=A+B−(A×B/100)
# [2] = system: IPOHE (Ipomoea hederacea Jacq., ivyleaf morningglory); assay: as above
# From the text: as §1, §2, §3, §4, §5, §6, §7, §8, §9
# [3] = system: ISCRU (Ischaemum rugosum Salisb., saramollagrass); assay: as above
# From the text: as §1, §2, §3, §4, §5, §6, §7, §8, §9
# [4] = system: LEFCH (Leptochloa chinensis (L.) Nees, Chinese sprangletop); assay: as above
# From the text: as §1, §2, §3, §4, §5, §6, §7, §8, §9
# [5] = system: BRAPP (Brachiaria platyphylla (Griseb.) Nash, broadleaf signalgrass); assay: Postemergence field trials in direct-seeded rice, United States (Example IV); details: foliar
# Procedure: Multiple post-emergence field trials were conducted under field conditions in Tolima, Colombia; Thessaloniki, Greece; Ottobiano and Copiano, Italy; Greenville, Miss. and Eagle Lake, Tex., USA; and water-injected treatments were tested at Ryugasaki, Japan. Trial sites were located in commercially grown fields of direct-seeded rice (Oryza sativa) using standard herbicide small plot research methodology, except in Japan where transplanted rice was utilized for the field trial. Post-emergence trial plot size varied from 2 to 3 meter (m)×5 to 8 m (width×length) with 4 replicates per treatment. Water-injected trial plot size was 2×2 m with 3 replicates per treatment. The rice crop was grown using normal cultural practices for fertilization, seeding, watering, flooding and maintenance to ensure good growth of the crop and the weeds.
# All treatments in the post-emergence field trials were applied using a backpack compressed air/gas sprayer with flat fan nozzles (80° or 110°) calibrated to apply 187 to 300 L/ha spray volume at approximately 200-400 kPa nozzle pressure. In Japan, treatments were water-injected applied where the specified amount of commercial product was mixed in 100 mls of water per replicate and applied directly into 3 cm deep water containing the crop and weeds. Treatments consisted of the benzyl ester of 4-amino-3-chloro-5-fluoro-6-(4-chloro-2-fluoro-3-methoxy-phenyl)pyridine-2-carboxylic acid (Compound A), formulated as an SC (suspension concentrate), and various herbicidal components alone and in combination.
# Commercially available products of penoxsulam (Viper 20OD® (Europe), Grasp 240SC® (USA), and Wideattack 37.5SC® (Japan)) were mixed in water at appropriate formulated product rates to achieve the desired rates based on a unit area of application (hectare) to achieve the desired rates as shown. Treatments were rated at 15 to 56 days after application (DAA) as compared to the untreated control plants. Visual weed control was scored on a scale of 0 to 100 percent where 0 corresponds to no injury and 100 corresponds to complete kill.
# All treatment results, both for the single product and mixtures, are an average of 3 to 4 replicates. The trial sites had naturally occurring populations of weeds. The weed spectrum included, but was not limited to, broadleaf signalgrass (Brachiaria platyphylla (Griseb.) Nash or Urochloa platyphylla (Nash) R.D. Webster, BRAPP), smallflower umbrellaplant (Cyperus difformis L., CYPDI), yellow nutsedge (Cyperus esculentus L., CYPES), multiple Echinochloa species in the same field (ECHSS) in Italy (mixed ECHSS biotypes), Amazon sprangletop (Leptochloa panicoides (J. Presl) A.S. Hitchc., LEFPA), and Japanese bulrush (Schoenoplectus juncoides (Roxb.) Palla, SCPJU).
# [6] = Compound A Benzyl Ester 8 gae/ha
# [7] = Compound A Benzyl Ester 16 gae/ha
# [8] = Compound A Benzyl Ester 17.5 gae/ha
# [9] = Compound A Benzyl Ester 32 gae/ha
# [10] = Compound A Benzyl Ester 4.38 gae/ha
# [11] = Compound A Benzyl Ester 8.75 gae/ha
# [12] = Penoxsulam 4.38 gai/ha, Table 3
# [13] = Penoxsulam 8.75 gai/ha, Table 2
# [14] = Penoxsulam 8.75 gai/ha, Table 3
# [15] = Penoxsulam 17.5 gai/ha, Table 3
compound,measurement,setting,value
"COc1c(Cl)ccc(-c2nc(C(=O)OCc3ccccc3)c(Cl)c(N)c2F)c1F [Compound A Benzyl Ester, benzyl ester of 4-amino-3-chloro-5-fluoro-6-(4-chloro-2-fluoro-3-methoxy-phenyl)pyridine-2-carboxylic acid]",Visual Weed Control (%) - 22 DAA BRAPP Obs,[1]; [6],60%
same,Visual Weed Control (%) - 22 DAA BRAPP Obs,[1]; [7],60%
same,Visual Weed Control (%) - 21 DAA BRAPP Obs,[1]; [8],80%
same,Visual Weed Control (%) - 22 DAA BRAPP Obs,[1]; [9],90%
same,Visual Weed Control (%) - 27 DAA IPOHE Obs,[2]; [10],10%
same,Visual Weed Control (%) - 27 DAA IPOHE Obs,[2]; [11],10%
same,Visual Weed Control (%) - 27 DAA IPOHE Obs,[2]; [8],10%
same,Visual Weed Control (%) - 21 DAA ISCRU Obs,[3]; [6],20%
same,Visual Weed Control (%) - 21 DAA ISCRU Obs,[3]; [7],0%
same,Visual Weed Control (%) - 20 DAA LEFCH Obs,[4]; [10],10%
same,Visual Weed Control (%) - 22 DAA LEFCH Obs,[4]; [6],10%
same,Visual Weed Control (%) - 20 DAA LEFCH Obs,[4]; [11],20%
same,Visual Weed Control (%) - 22 DAA LEFCH Obs,[4]; [7],25%
same,Visual Weed Control (%) - 20 DAA LEFCH Obs,[4]; [8],60%
same,Visual Weed Control (%) - 22 DAA LEFCH Obs,[4]; [9],55%
same,Visual Weed Control (%) - 15-19 DAA BRAPP Obs,[5]; [9],62%
"COc1cnc(OC)n2nc(NS(=O)(=O)c3c(OCC(F)F)cccc3C(F)(F)F)nc12 [Penoxsulam, 2-(2,2-difluoroethoxy)-N-(5,8-dimethoxy[1,2,4]triazolo[1,5-c]pyrimidin-2-yl)-6-(trifluoromethyl)benzenesulfonamide, reference compound]",Visual Weed Control (%) - 21 DAA BRAPP Obs,"[1]; Penoxsulam 4.38 gai/ha, Table 2",0%
same,Visual Weed Control (%) - 21 DAA BRAPP Obs,[1]; [12],0%
same,Visual Weed Control (%) - 21 DAA BRAPP Obs,[1]; [13],20%
same,Visual Weed Control (%) - 21 DAA BRAPP Obs,[1]; [14],20%
same,Visual Weed Control (%) - 21 DAA BRAPP Obs,[1]; [15],40%
same,Visual Weed Control (%) - 27 DAA IPOHE Obs,[2]; [12],10%
same,Visual Weed Control (%) - 27 DAA IPOHE Obs,"[2]; Penoxsulam 8.75 gai/ha, Table 1",15%
same,Visual Weed Control (%) - 27 DAA IPOHE Obs,[2]; [13],15%
same,Visual Weed Control (%) - 27 DAA IPOHE Obs,[2]; [14],15%
same,Visual Weed Control (%) - 27 DAA IPOHE Obs,"[2]; Penoxsulam 17.5 gai/ha, Table 1",20%
same,Visual Weed Control (%) - 27 DAA IPOHE Obs,"[2]; Penoxsulam 17.5 gai/ha, Table 2",20%
same,Visual Weed Control (%) - 27 DAA IPOHE Obs,[2]; [15],20%
same,Visual Weed Control (%) - 21 DAA ISCRU Obs,[3]; Penoxsulam 10 gai/ha,0%
same,Visual Weed Control (%) - 21 DAA ISCRU Obs,[3]; Penoxsulam 20 gai/ha,0%
same,Visual Weed Control (%) - 19 DAA LEFCH Obs,[4]; Penoxsulam 40 gai/ha,0%
same,Visual Weed Control (%) - 15-19 DAA BRAPP Obs,[5]; Penoxsulam 40 gai/ha,35%
